We go through seven compounds from patent US20230286973A1, “PROTEIN SECRETION INHIBITORS” (KEZAR LIFE SCIENCES, priority 2020, published 2023).

A short description of data set [1]: Liver Microsome Stability Assay (monkey). Particulars: monkey liver microsomes, with NADPH, 1.0 uM compound. In general terms: Liver microsomes are a subcellular fraction often used to study metabolism.
Experimental: (§2) Stability of a compound was assessed in the presence of liver microsomes from various sources—mouse, rat, monkey and human liver microsomes. 1.0 uM compound, 0.4% DMSO in 0.1 M Potassium Phosphate with 1.0 mg/mL liver microsomes, were incubated at 37° C. with or without 1 mM NADPH. The samples were quenched at 0, and 30 minutes.
Data set [2] can be described thus: Liver Microsome Stability Assay (mouse). Particulars: mouse liver microsomes, with NADPH, 1.0 uM compound.
Experimental: as §2
Data set [3] can be described thus: Liver Microsome Stability Assay (rat). Particulars: rat liver microsomes, with NADPH, 1.0 uM compound.
Experimental: as §2
The subject of data set [4] is IL-2-FL/Gaussia Luciferase. Put plainly: Dox Induced IL2-FL-Gluc Assay. It counts as cell-based. The conditions noted are these: for IC50: 24 hr Dox induction, 293FRT/TO cells, read-out: 24 hr Dox Inducible IL2FLGluc 293FRT/TO: Mean IC50; for 24 hr Dox Inducible IL2FLGluc 293FRT/TO: IL2/PD1: ratio of IL2FLGluc IC50 to PD1ssGluc IC50. The method, boiled down: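 Cells are plated one day ahead, then receive compound dilutions in DMSO/media with doxycycline and incubate at 37° C, 5% CO2. They are Flp-In 293 T-REx cells expressing a full-length IL-2 (amino acids 1-153)–Gaussia luciferase fusion under T-REx control.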

Data set [5] concerns HER3-ss+4aa/Gaussia Luciferase. The data set can be described thus: Dox-Induced Her3-ss-Gluc Assay. It counts as cell-based. The conditions noted are these: 24 hr Dox induction, 293FRT/TO cells, read-out: 24 hr Dox Inducible Her3(ss + 4)Gluc 293FRT/TO: Mean IC50. The source says:
Flp-In 293 T-REx™ cells were transfected with pcDNA™5/FRT/TO plasmid inserted with cDNA encoding Gaussia Luciferase fused to the 3′ end of cDNA encoding HER3 signal sequence plus 4 amino acids (N-[…]-C) (SEQ ID NO: 2). Transfected cells were selected for resistance to the selectable markers Hygromycin and Blasticidin to create a stable cell line that contained the HER3-ss+4aa/Gaussia Luciferase cDNA insert whose expression was regulated under the T-REx™ system. The day before assay, cells were trypsinized and plated in 384-well tissue culture plates. The next day, compound dilutions in DMSO/media containing doxycycline were added to the wells and incubated at 37° C., 5% CO2.
(§1) For chemical structures that include one or more stereoisomers, but are illustrated without indicating stereochemistry, the assay data refers to a mixture of stereoisomers.

The test system of data set [6] is multiple myeloma cell line U266B1. The data set can be described thus: U266 Cell Viability Assay. It counts as cell-based, human. The conditions noted are these: Homo sapiens, U-266, 48 h, U266B1 cells, Celltiter-Glo. The method, boiled down:
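Steps: culture in RPMI 1640 plus 10% FBS and 2 mM glutamine; plate and add compound dilutions; incubate 48 hours at 37° C., 5% CO2; add CellTiter-Glo and quantify luciferase signal.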
For orientation: ATP-based viability assays read luminescence as a measure of living cells.

In data set [7] the test system is TNFα-FL/Gaussia Luciferase. Put plainly: Dox Induced TNFα-FL-Gluc Assay. It counts as cell-based. Particulars: for IC50: 24 hr Dox induction, 293FRT/TO cells, read-out: 24 hr Dox Inducible TNFaFLGluc 293FRT/TO: Mean IC50; for 24 hr Dox Inducible TNFaFLGluc 293FRT/TO: TNF/PD1: ratio of TNFaFLGluc IC50 to PD1ssGluc IC50.
Excerpt: Flp-In 293 T-REx™ cells were transfected with pcDNA™5/FRT/TO plasmid inserted with cDNA encoding Gaussia Luciferase fused to the 3′ end of cDNA encoding full length TNFα (amino acids 1-233). Transfected cells were selected for resistance to the selectable markers Hygromycin and Blasticidin to create a stable cell line that contained the TNFα-FL/Gaussia Luciferase cDNA insert whose expression was regulated under the T-REx™ system. The day before assay, cells were trypsinized and plated in 384-well tissue culture plates. The next day, compound dilutions in DMSO/media containing doxycycline were added to the wells and incubated at 37° C., 5% CO2.
as §1

A short description of data set [8]: Liver Microsome Stability Assay (human). The conditions noted are these: human liver microsomes, with NADPH, 1.0 uM compound.
Experimental: as §2
For data set [9], the system named is multiple myeloma cell line NCI-H929. The data set can be described thus: H929 Cell Viability Assay. Particulars: NCI-H929 cells, Celltiter-Glo. It counts as cell-based, human. The gist of the method:
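Luminescent ATP detection (CellTiter-Glo) after 48 hours of compound exposure measures viability. Cells were plated in RPMI 1640 containing 10% fetal bovine serum and kept at 37° C under 5% CO2.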

Data set [10] relates to PD1-ss+10aa/Gaussia Luciferase. The data set can be described thus: Dox-Induced PD1-ss-Gluc Assay. It counts as cell-based. Particulars: 24 hr Dox induction, 293FRT/TO cells, read-out: 24 hr Dox Inducible PD1ssGluc 293FRT/TO: Mean IC50. The gist of the method:
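Doxycycline-induced expression of a PD1-ss+10aa/Gaussia luciferase reporter is measured in stable Flp-In 293 T-REx cells. Compound dilutions containing doxycycline are added one day after plating and incubated at 37 °C, 5% CO2. Values for unassigned stereocentres refer to stereoisomer mixtures.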

Setting [11] is: '<=>' given where both are I.A.

Where “and” joins values, the source holds several entries; their conditions need not be identical. Identical values can stand only once. Like-named read-outs stand apart in the source and are kept apart here. Where only a bound is given, the exact number is not on record here.

As usually defined, the EC50 is the concentration needed to bring the measured effect to its halfway point. For `O=C(Nc1nc([C@H]2CCCN2c2ccc(OC3CCOCC3)cc2)cs1)c1cccn1Cc1ccncc1` [Compound A1, (R)-1-(pyridin-4-ylmethyl)-N-(4-(1-(4-((tetrahydro-2H-pyran-4-yl)oxy)phenyl)pyrrolidin-2-yl)thiazol-2-yl)-1H-pyrrole-2-carboxamide], in data set [1], the “Liver Microsome Stability (Multiple Species): Monkey - % Remaining after 30 min w/NADPH” value is recorded as 6.47%. The “Liver Microsome Stability (Multiple Species): Mouse - % Remaining after 30 min w/NADPH” value in data set [2] is recorded as 24.8%. For the same compound, the “Liver Microsome Stability (Multiple Species): Rat - % Remaining after 30 min w/NADPH” value in [3] is 50%. For the same compound, the IC50 in [4] worked out at 53.8 nM; in data set [5] it was 58.4 nM; in [7], 369 nM; in [10], 26.9 nM. The “24 hr Dox Inducible IL2FLGluc 293FRT/TO: IL2/PD1” value in [4] stood at 2. In addition, the EC50 is over 25000 nM in data set [6] and 1230 nM in data set [9] (Homo sapiens, NCI-H929, 48 h). The “24 hr Dox Inducible TNFaFLGluc 293FRT/TO: TNF/PD1” value in data set [7] stood at 13.7. For the same compound, the “Liver Microsome Stability (Multiple Species): Human - % Remaining after 30 min w/NADPH” value in data set [8] was 14.3%.

On to `O=C(Nc1nc([C@H]2CCCN2c2ccc(OC3COC3)cc2)cs1)c1cccn1Cc1ccncc1` [Compound A2, (R)-N-(4-(1-(4-(oxetan-3-yloxy)phenyl)pyrrolidin-2-yl)thiazol-2-yl)-1-(pyridin-4-ylmethyl)-1H-pyrrole-2-carboxamide], for which the “Liver Microsome Stability (Multiple Species): Monkey - % Remaining after 30 min w/NADPH” value in data set [1] is reported as 0.18%. Moreover, in data set [2], the “Liver Microsome Stability (Multiple Species): Mouse - % Remaining after 30 min w/NADPH” value was found to be 6.6%. The “Liver Microsome Stability (Multiple Species): Rat - % Remaining after 30 min w/NADPH” value in data set [3] amounted to 7.5%. The IC50 in data set [4] was 34 nM; in [5], 31.4 nM; in data set [7], 211 nM; in data set [10] it was 18.2 nM. Also, the “24 hr Dox Inducible IL2FLGluc 293FRT/TO: IL2/PD1” value in data set [4] is 1.9. Moreover, the EC50 was over 25000 nM in data set [6] and 1340 nM in data set [9] (Homo sapiens, NCI-H929, 48 h). Also, in data set [7], the “24 hr Dox Inducible TNFaFLGluc 293FRT/TO: TNF/PD1” value is reported as 11.6. The “Liver Microsome Stability (Multiple Species): Human - % Remaining after 30 min w/NADPH” value in [8] came out at 0.92%.

Consider `O=C(Nc1nc([C@H]2CCCN2c2ccc(O[C@@H]3CCOC3)cc2)cs1)c1cccn1Cc1ccncc1` [Compound A3, 1-(pyridin-4-ylmethyl)-N-(4-((R)-1-(4-(((R)-tetrahydrofuran-3-yl)oxy)phenyl)pyrrolidin-2-yl)thiazol-2-yl)-1H-pyrrole-2-carboxamide], for which the “Liver Microsome Stability (Multiple Species): Monkey - % Remaining after 30 min w/NADPH” value in [1] turned out to be 0.62%. The “Liver Microsome Stability (Multiple Species): Mouse - % Remaining after 30 min w/NADPH” value in data set [2] stood at 9%. Moreover, the “Liver Microsome Stability (Multiple Species): Rat - % Remaining after 30 min w/NADPH” value in [3] was 20.1%. Also, the IC50 in data set [4] was 26 nM; in data set [5], 33.5 nM; in data set [7] it was 171 nM; in [10], 15.6 nM. The “24 hr Dox Inducible IL2FLGluc 293FRT/TO: IL2/PD1” value in data set [4] stood at 1.7. Also, the EC50 is over 25000 nM in data set [6] and 530 nM in data set [9] (Homo sapiens, NCI-H929, 48 h). Also, the “24 hr Dox Inducible TNFaFLGluc 293FRT/TO: TNF/PD1” value in [7] stood at 11. For the same compound, the “Liver Microsome Stability (Multiple Species): Human - % Remaining after 30 min w/NADPH” value in [8] is listed as 2.33%.

On to `O=C(Nc1nc([C@H]2CCCN2c2ccc(O[C@H]3CCOC3)cc2)cs1)c1cccn1Cc1ccncc1` [Compound A4, 1-(pyridin-4-ylmethyl)-N-(4-((R)-1-(4-(((S)-tetrahydrofuran-3-yl)oxy)phenyl)pyrrolidin-2-yl)thiazol-2-yl)-1H-pyrrole-2-carboxamide], for which, in [1], the “Liver Microsome Stability (Multiple Species): Monkey - % Remaining after 30 min w/NADPH” value is 0.36%. Moreover, in [2], the “Liver Microsome Stability (Multiple Species): Mouse - % Remaining after 30 min w/NADPH” value came to 9.36%. Moreover, the “Liver Microsome Stability (Multiple Species): Rat - % Remaining after 30 min w/NADPH” value in [3] stood at 15.4%. The IC50 worked out at 25.7 nM in data set [4], 26.8 nM in data set [5], 155 nM in [7] and 16 nM in data set [10]. In [4], the “24 hr Dox Inducible IL2FLGluc 293FRT/TO: IL2/PD1” value is given as 1.6. In addition, the EC50 in data set [6] was over 25000 nM; in [9] (Homo sapiens, NCI-H929, 48 h), 430 nM. The “24 hr Dox Inducible TNFaFLGluc 293FRT/TO: TNF/PD1” value in data set [7] is on record as 9.69. In data set [8], the “Liver Microsome Stability (Multiple Species): Human - % Remaining after 30 min w/NADPH” value was 4.21%.

Take `Cc1cn(C(C)C)nc1/C=C/c1csc(NC(=O)c2cccn2Cc2ccncc2)n1` [Compound B80, (E)-N-(4-(2-(1-isopropyl-4-methyl-1H-pyrazol-3-yl)vinyl)thiazol-2-yl)-1-(pyridin-4-ylmethyl)-1H-pyrrole-2-carboxamide]: the IC50 amounted to 5370 nM in data set [4], 3140 nM in data set [5], 7270 nM in data set [7] and 372 nM in data set [10]. Also, in [4], the “24 hr Dox Inducible IL2FLGluc 293FRT/TO: IL2/PD1” value stood at 14. The EC50 in [6] is 19000 nM; in data set [9] (Homo sapiens, NCI-H929, 48 h) it was 16200 nM. Besides, the “24 hr Dox Inducible TNFaFLGluc 293FRT/TO: TNF/PD1” value in [7] came to 19.5.

As to `Cc1cnn(C(C)C)c1/C=C/c1csc(NC(=O)c2cccn2Cc2ccnc(F)c2)n1` [Compound B84, (E)-1-((2-fluoropyridin-4-yl)methyl)-N-(4-(2-(1-isopropyl-4-methyl-1H-pyrazol-5-yl)vinyl)thiazol-2-yl)-1H-pyrrole-2-carboxamide], the “Liver Microsome Stability (Multiple Species): Monkey - % Remaining after 30 min w/NADPH” value in [1] was 5.77% and 6.74%. In addition, the “Liver Microsome Stability (Multiple Species): Mouse - % Remaining after 30 min w/NADPH” value in [2] is 50.1% and 71.4%. Besides, the IC50 in data set [4] is 2170 nM; in data set [5], 2020 nM; in data set [7] it was 1670 nM; in data set [10], 905 nM. Further, in data set [4], the “24 hr Dox Inducible IL2FLGluc 293FRT/TO: IL2/PD1” value came out at 2.4. Also, the EC50 in data set [6] was found to be 19100 nM; in data set [9] (Homo sapiens, NCI-H929, 48 h) it was 6850 nM. The “24 hr Dox Inducible TNFaFLGluc 293FRT/TO: TNF/PD1” value in [7] was 1.84. Besides, in data set [8], the “Liver Microsome Stability (Multiple Species): Human - % Remaining after 30 min w/NADPH” value is 10.6% and 16.9%.

As for `CO[C@H](CC#N)Cn1cccc1C(=O)Nc1nc([C@H]2CCCN2c2ccccc2)cs1` [Compound C108, 1-((R)-3-cyano-2-methoxypropyl)-N-(4-((R)-1-phenylpyrrolidin-2-yl)thiazol-2-yl)-1H-pyrrole-2-carboxamide], in [1], the “Liver Microsome Stability (Multiple Species): Monkey - % Remaining after 30 min w/NADPH” value was 2.55% and 1.11%. In data set [3], the “Liver Microsome Stability (Multiple Species): Rat - % Remaining after 30 min w/NADPH” value was 3.87% and 7.05%. The IC50 in data set [4] (mean) was 4510 nM and 3480 nM; in data set [5] (mean), 2410 nM and 2480 nM; in data set [7] (mean), > 25000 nM and 17900 nM; in data set [10] (mean) it was 2400 nM and 1590 nM. In addition, the “24 hr Dox Inducible IL2FLGluc 293FRT/TO: IL2/PD1” value in data set [4] (setting [11]) was 1.9 and 2.2. Also, the EC50 in data set [6] is over 25000 nM; in data set [9] (Homo sapiens, NCI-H929, 48 h), over 23800 nM; in [9] (48 hr) it was 20300 nM. Also, the “24 hr Dox Inducible TNFaFLGluc 293FRT/TO: TNF/PD1” value in [7] (setting [11]) is > 10.4 and 11.3. In data set [8], the “Liver Microsome Stability (Multiple Species): Human - % Remaining after 30 min w/NADPH” value was 8.71% and 7.07%.
